Laboratory results taken from article PMC12621569 (Antiviral research, 2025).

Assays:
A(H3N2) viruses = format: cell-based, influenza A(H3N2) virus
type A viruses = conditions: cited from earlier work
A(H1N1)pdm09 viruses = format: cell-based, influenza A(H1N1)pdm09 virus
influenza A viruses = format: cell-based, influenza A virus
[1] = test system: B/Victoria neuraminidase (NA); format: biochemical, influenza B/Victoria lineage virus
[2] = biological target: A (H1N1)pdm09 neuraminidase (NA); format: biochemical, influenza A (H1N1)pdm09 virus

Which “effect on baloxavir susceptibility” value (A(H3N2) viruses) does the source give for O=C1c2c(O)c(=O)ccn2N([C@@H]2c3ccccc3SCc3c2ccc(F)c3F)[C@@H]2COCCN12 [Baloxavir, baloxavir] here?
Its value is “no effect”.

What about the “elevated baloxavir EC50 in cell culture” value (type A viruses) of the same compound?
Its value is “• Primary treatment-emergent; associated with diminished virologic response in clinical settings • Rarely as natural polymorphism • Confers elevated baloxavir EC50 in cell culture (11–614-fold)”.

And the “variably elevated baloxavir EC50” value (type A viruses)?
Its value is “• Most are natural polymorphisms • Some emerged post baloxavir exposure or introduced for assessment • Confer variably elevated baloxavir EC50 (<3–19 fold)”.

What about the “effect on baloxavir susceptibility” value (A(H1N1)pdm09 viruses) of the same compound?
Its value is “no effect”.

And the “change in EC50” value (influenza A viruses)?
Its value is “• Natural polymorphism • No or little change in EC50 (<3-fold)”.

Which “effect of substitution on inhibition of NA activity” value [1] does the source give for CCOC(=O)C1=C[C@@H](OC(CC)CC)[C@H](NC(C)=O)[C@@H](N)C1 [Oseltamivir, oseltamivir] here?
The value was “improving the ability”.

What does the source list for CCC(CC)[C@H](NC(C)=O)[C@@H]1[C@H](O)[C@@H](C(=O)O)C[C@H]1N=C(N)N [Peramivir, peramivir]?
IC50 Fold [2]: 301 fold; IC50 fold vs NA sequence-matched virus [1]: 14 fold; effect of substitution on inhibition of NA activity [1]: improving the ability
